# Test results reported in patent US9302991B2, “Arylamide derivatives as TTX-S blockers” (RaQualia Pharma Inc., priority 2010, dated 2016).
# Molecular target: T1, human Nav1.7 channels (Homo sapiens, UniProt Q15858)
# T1 construct: expressed in transfected cells; host or cells: CHO
# Assay: FRET assay, human Nav1.7 (EFS on FDSS)
# Assay type: cell-based
# Details: CHO cells expressing human Nav1.7, read-out: IC50 against Nav1.7
# Description: The inhibitory activities of compounds against voltage gated sodium channels are determined by methodology well known in the art.
# The ability of the aryl substituted carboxamide derivatives of the formula (I) to inhibit the NaV1.3, Nav1.7 and Nav1.5 channels is measured by Fluorescence Resonance Energy Transfer (FRET) assay and electrophysiology assay described below.
# This screen is used to determine the effects of compounds on human Nav1.3, human Nav1.7, and human Nav1.5 channels, utilising electrical field stimulation (EFS) system in 96-well plate format on FDSS (Hamamatsu Photonics) platform. The change of membrane potential is monitored with FRET dye pair, oxonol (DiSBAC2(3)) and coumarin (CC2-DMPE).
# CHO cells expressing human Nav1.7 channels are grown in T225 flasks, in a 5% CO2 humidified incubator to about 80% confluence. Media composition consists of HAM/F12 with Glutamax 1.10% FCS, 100 units/mL Penicillin and 100 microgram/mL Hygromycin.
# Protocol: • Seed each cell lines (1×10^5 cells/well) into poly-D-lysine coated 96-well plates prior to experimentation. • Incubate at 37° C. in 5% CO2 for 24 hours. • Wash each well with assay buffer (140 mM NaCl, 4.5 mM KCl, 10 mM D-Glucose, 2 mM CaCl2, 1 mM MgCl2, 10 mM HEPES, pH 7.4 adjusted with NaOH) twice. • Add 1st loading solution containing 10 microM CC2-DMPE and 0.06% Pluronic F-127 in assay buffer. • Incubate the plate at room temperature in dark for 1 hour. • Remove 1st loading solution and added 2nd loading solution containing 15 microM DiSBAC2(3), 0.555 mM VABSC-1 and 0.004% Pluronic F-127 in assay buffer. • Place the plate under the dark at room temperature for 25 minutes. • Add compound solutions into the assay plate. • Set the assay plate in FDSS and placed an EFS device on the plate. • Measure EFS-induced fluorescent response by FDSS.
# The data are analyzed and reported as normalized ratios of intensities measured at […]. The process of calculating these ratios is performed as follows:
# This analysis is performed using a computerized specific program designed for FDSS generated data. Fluorescence ratio values are plotted using XLfit to determine an IC50 value for each compound.
# T1 sequence (Q15858 whole entry): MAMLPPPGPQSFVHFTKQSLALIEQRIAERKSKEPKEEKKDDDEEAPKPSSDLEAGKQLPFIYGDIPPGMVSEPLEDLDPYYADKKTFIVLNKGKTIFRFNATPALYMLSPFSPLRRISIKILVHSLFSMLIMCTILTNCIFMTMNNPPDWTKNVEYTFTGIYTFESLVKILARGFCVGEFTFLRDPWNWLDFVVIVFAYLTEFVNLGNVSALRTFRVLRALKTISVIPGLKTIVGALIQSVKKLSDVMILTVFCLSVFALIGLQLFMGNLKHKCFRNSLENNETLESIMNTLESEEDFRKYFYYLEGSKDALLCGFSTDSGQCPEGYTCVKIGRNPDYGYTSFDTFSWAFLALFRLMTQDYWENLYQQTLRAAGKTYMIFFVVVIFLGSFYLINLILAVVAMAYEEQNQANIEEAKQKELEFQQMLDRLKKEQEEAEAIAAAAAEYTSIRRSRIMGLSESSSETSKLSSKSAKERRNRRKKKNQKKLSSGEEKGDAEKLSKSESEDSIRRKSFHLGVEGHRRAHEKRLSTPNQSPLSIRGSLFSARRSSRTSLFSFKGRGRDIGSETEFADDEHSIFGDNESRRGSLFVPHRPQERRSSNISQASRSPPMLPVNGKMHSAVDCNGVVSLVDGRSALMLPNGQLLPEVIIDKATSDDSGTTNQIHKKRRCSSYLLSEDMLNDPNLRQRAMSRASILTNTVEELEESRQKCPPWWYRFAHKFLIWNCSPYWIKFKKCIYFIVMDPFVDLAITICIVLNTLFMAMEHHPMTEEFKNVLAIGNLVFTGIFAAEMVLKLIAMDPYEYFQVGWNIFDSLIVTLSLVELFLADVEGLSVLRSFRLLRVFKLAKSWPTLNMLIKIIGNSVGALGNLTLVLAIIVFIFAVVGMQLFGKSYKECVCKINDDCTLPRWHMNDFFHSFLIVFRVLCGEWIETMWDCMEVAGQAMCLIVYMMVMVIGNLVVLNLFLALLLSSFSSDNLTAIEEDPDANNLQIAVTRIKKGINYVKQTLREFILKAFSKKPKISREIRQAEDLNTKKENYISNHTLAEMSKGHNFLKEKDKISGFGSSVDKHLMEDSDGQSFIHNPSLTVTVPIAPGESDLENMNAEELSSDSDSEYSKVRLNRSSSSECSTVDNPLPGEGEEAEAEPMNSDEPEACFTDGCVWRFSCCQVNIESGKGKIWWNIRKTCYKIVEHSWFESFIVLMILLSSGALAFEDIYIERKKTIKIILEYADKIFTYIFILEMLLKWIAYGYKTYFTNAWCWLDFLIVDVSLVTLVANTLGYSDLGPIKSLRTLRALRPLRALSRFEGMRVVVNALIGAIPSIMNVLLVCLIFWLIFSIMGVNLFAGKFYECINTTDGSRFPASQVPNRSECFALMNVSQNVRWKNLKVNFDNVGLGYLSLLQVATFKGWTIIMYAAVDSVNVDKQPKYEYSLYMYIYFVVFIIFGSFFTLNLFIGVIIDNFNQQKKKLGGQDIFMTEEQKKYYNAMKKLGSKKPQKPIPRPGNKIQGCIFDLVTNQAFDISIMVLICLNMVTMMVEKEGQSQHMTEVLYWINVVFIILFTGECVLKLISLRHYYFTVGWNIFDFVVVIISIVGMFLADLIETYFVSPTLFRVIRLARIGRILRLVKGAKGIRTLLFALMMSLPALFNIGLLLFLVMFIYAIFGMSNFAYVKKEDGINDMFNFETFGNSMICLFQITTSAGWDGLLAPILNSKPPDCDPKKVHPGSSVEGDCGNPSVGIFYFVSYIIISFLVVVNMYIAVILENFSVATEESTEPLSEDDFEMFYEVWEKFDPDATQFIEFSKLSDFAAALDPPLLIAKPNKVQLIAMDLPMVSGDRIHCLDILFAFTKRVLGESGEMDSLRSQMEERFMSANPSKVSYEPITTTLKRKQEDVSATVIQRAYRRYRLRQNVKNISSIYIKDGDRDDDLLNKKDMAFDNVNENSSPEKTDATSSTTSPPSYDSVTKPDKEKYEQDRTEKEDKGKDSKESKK
row,IC50 [nM],SMILES
1,< 1000,"CC(=O)Nc1cc(C(=O)NC(C)c2cnc(OCC(F)F)c(C)c2)cc(C)n1 (single isomer, unassigned) [Example 556, 2-acetamido-N-(1-(6-(2,2-difluoroethoxy)-5-methylpyridin-3-yl)ethyl)-6-methylisonicotinamide]"
2,< 1000,"Cc1cc(C(=O)NC(C)c2cnc(OCC(F)F)c(C)c2)nc(NC(=O)C2CC2)n1 (single isomer, unassigned) [Example 559, 2-(cyclopropanecarboxamido)-N-(1-(6-(2,2-difluoroethoxy)-5-methylpyridin-3-yl)ethyl)6-methylpyrimidine-4-carboxamide]"
3,< 1000,"CCCC(=O)Nc1cc(C(=O)NC(C)c2cnc(OCC(F)F)c(C)c2)ccn1 (single isomer, unassigned) [Example 633, 2-butyramido-N-(1-(6-(2,2-difluoroethoxy)-5-methylpyridin-3-yl)ethyl)isonicotinamide]"
4,< 1000,"CCC(=O)Nc1cc(C(=O)NC(C)c2ccc(OCC(F)(F)C(F)F)nc2)ccn1 (single isomer, unassigned) [Example 653, 2-propionamido-N-(1-(6-(2,2,3,3-tetrafluoropropoxy)pyridin-3-yl)ethyl)isonicotinamide]"
5,< 1000,"CC(C)C(=O)Nc1cc(C(=O)NC(C)c2ccc(OCC(F)(F)C(F)F)nc2)ccn1 (single isomer, unassigned) [Example 654, 2-isobutyramido-N-(1-(6-(2,2,3,3-tetrafluoropropoxy)pyridin-3-yl)ethyl)isonicotinamide]"

# Further lines, the molecule ahead of its results:
row,SMILES,IC50 [nM]
1,"CC(C)C(=O)Nc1cc(C(=O)NC(C)c2cccc(OCC(F)(F)F)c2)ccn1 (single isomer, unassigned) [Example 561, 2-isobutyramido-N-(1-(3-(2,2,2-trifluoroethoxy)phenyl)ethyl)isonicotinamide]",< 1000
2,"CC(C)C(=O)Nc1cc(C(=O)NC(C)c2ccc(OCC(F)(F)F)cc2)ccn1 (single isomer, unassigned) [Example 562, 2-isobutyramido-N-(1-(4-(2,2,2-trifluoroethoxy)phenyl)ethyl)isonicotinamide]",< 1000
3,"Cc1cc(C(=O)NC(C)c2ccc(OCC(F)(F)C(F)F)nc2)cc(NC(=O)C(C)C)n1 (single isomer, unassigned) [Example 657, 2-isobutyramido-6-methyl-N-(1-(6-(2,2,3,3-tetrafluoropropoxy)pyridin-3-yl)ethyl)isonicotinamide]",< 1000
4,"CCC(=O)Nc1cc(C(=O)NC(C)c2ccc(OCC(F)(F)F)c(Cl)c2)ccn1 (single isomer, unassigned) [Example 673, N-(1-(3-chloro-4-(2,2,2-trifluoroethoxy)phenyl)ethyl)-2-propionamidoisonicotinamide]",< 1000
5,"CC(NC(=O)c1ccnc(NC(=O)C2CC2)c1)c1ccc(OCC(F)(F)F)c(Cl)c1 (single isomer, unassigned) [Example 675, N-(1-(3-chloro-4-(2,2,2-trifluoroethoxy)phenyl)ethyl)-2-(cyclopropanecarboxamido)isonicotinamide]",< 1000
6,"CC(=O)Nc1cc(C(=O)NC(C)c2ccc(OCC(F)(F)F)c(Cl)c2)cc(C)n1 (single isomer, unassigned) [Example 676, 2-acetamido-N-(1-(3-chloro-4-(2,2,2-trifluoroethoxy)phenyl)ethyl)-6-methylisonicotinamide]",< 1000
7,"Cc1cc(C(=O)NC(C)c2ccc(OCC(F)(F)F)c(Cl)c2)cc(NC(=O)C(C)C)n1 (single isomer, unassigned) [Example 678, N-(1-(3-chloro-4-(2,2,2-trifluoroethoxy)phenyl)ethyl)-2-isobutyramido-6-methylisonicotinamide]",< 1000
8,"Cc1cc(C(=O)NC(C)c2ccc(OCC(F)(F)F)c(Cl)c2)nc(NC(=O)C2CC2)n1 (single isomer, unassigned) [Example 679, N-(1-(3-chloro-4-(2,2,2-trifluoroethoxy)phenyl)ethyl)-2-(cyclopropanecarboxamido)-6-methylpyrimidine-4-carboxamide]",< 1000
